Assay results from a melting point compilation (Tetko et al.; mined from patent text by program, amines drawn as free bases though some values may be those of a salt).

First: Cc1cccc(C2=NCSC2(c2ccnc(C)c2)N2CCOC2=O)c1 (stereo not drawn)
Second: Cc1cnc2sc(Sc3ccccc3)nn2c1=O
The melting point of the first is lower: 80 to 82 °C for the first, 141 to 143 °C for the second.

First: O=C1OC[C@H]2[C@@H]1N(Cc1ccccc1)C(=O)N2Cc1ccccc1 (relative stereo)
Second: Cc1c(-c2ccccc2)n[nH]c1-c1ccccc1
The melting point of the first is lower: 106 to 109 °C for the first, 225 to 226 °C for the second.

Compared with `CCc1cc(CC)n2ncc(Br)c2n1`, `CCc1cc(CCCOc2c(C)cc(-c3noc(C)n3)cc2C)on1` is higher in melting point: 64 to 65 °C for the first, 85 to 86 °C for the second.

Compared with `Cc1cc(F)c(-n2ccc(O)n2)cc1SCC(F)(F)F`, `OCCCNc1nc2cc(C(F)(F)F)c(Br)cc2n2ccnc12` is lower in melting point: 166 to 168 °C for the first, 148 to 161 °C for the second.

First: CCOC(=O)CCCCCOc1ccc(C=O)cc1
Second: CCCC(=NO)c1ccc(OCOC)cc1
The melting point of the first is lower: 33 to 35 °C for the first, 74 to 76 °C for the second.

First: O=C(c1ccc(O)cc1)c1sc2cc(O)ccc2c1-c1ccccc1
Second: CCN(CC)C(=O)C=Cc1ccc(C2=C(c3ccc(O)cc3)CCc3cc(O)ccc32)cc1
The melting point of the first is lower: 198 to 200 °C for the first, 222 °C for the second.

First: CCCCCc1c(C(C)C)nc(C(C)C)c(CO)c1-c1cccc(OC)c1
Second: CC(C)c1ccc2cc(C(=O)Nc3ccc(OCC(C)(C)C)c(C#N)c3)sc2n1
The melting point of the first is lower: 65 to 66 °C for the first, 244 to 245 °C for the second.

Compared with `NC(=O)c1ccc(I)c([N+](=O)[O-])c1`, `O=C(CBr)Nc1ccc([N+](=O)[O-])cc1` is higher in melting point: 152 to 155 °C for the first, 175 to 178 °C for the second.

First: COCCn1c(C)cc(C(=O)c2cccc(Cl)c2)c1C
Second: CCCCOc1cc(C(=O)NCC#N)cc(Cl)n1
The melting point of the first is higher: 112 to 113 °C for the first, 72 to 73 °C for the second.

Compared with `CC1=Cc2cc3c(cc2C(c2ccc([N+](=O)[O-])c(C)c2)=NN1C(=O)NC1CC1)OCO3`, `Cc1ccc(S(=O)(=O)Sc2cc(C)c(NC(=O)OC(C)(C)C)cc2C(C)(C)C)cc1` is lower in melting point: 198 to 202 °C for the first, 106 to 108 °C for the second.

First: CCOC(=O)c1ccc(C#CC2(O)CN3CCC2CC3)cc1 (stereo not drawn)
Second: CCOC(=O)C1=C(C)N2CCNC2=C(C(=O)OCC)C1c1cccc(C(=O)OCC)c1 (stereo not drawn)
The melting point of the first is higher: 176 to 177 °C for the first, 149 °C for the second.

Compared with `Fc1ccc2[nH]cc(C3=CCC(N4CCC(Cc5ccccc5)CC4)CC3)c2c1` (stereo not drawn), `CS(=O)(=O)c1ccc(-c2ccccc2Oc2ccccc2)cc1` is higher in melting point: 72 to 74 °C for the first, 130 to 131 °C for the second.

First: O=C(C=Cc1cc(O)c(O)c(C(F)(F)F)c1)c1ccccc1
Second: Nc1ccc(O)cc1/C=C/C(=O)CC(=O)/C=C/c1ccc(O)cc1
The melting point of the first is higher: 196 to 201 °C for the first, 186 to 192 °C for the second.

First: N#Cc1cc(C(=O)NNC(=O)c2occc2-c2ccccc2O)ccc1O
Second: O=C(Nc1nc(-c2ccco2)c(C(=O)c2ccncn2)s1)c1ccncc1
The melting point of the first is lower: 135 to 140 °C for the first, > 300 °C for the second.

Compared with `C=Cc1[nH]c2cccc3c2c1CC1C3CC(NC(=O)N(CC)CC)CN1C` (stereo not drawn), `CC(C)(C)OC(=O)c1ncn2c1[C@@H]1CCCN1C(=O)c1ccccc1-2` is higher in melting point: 145 to 150 °C for the first, 237 to 238 °C for the second.

First: COc1cc2nc(C)nc(Cl)c2cc1OC
Second: COc1cc(OC)c(-c2ccccc2)nn1
The melting point of the first is higher: 182 to 184 °C for the first, 53 to 54 °C for the second.

First: C=CC(=O)Oc1ccc(N2C(=O)C(=C(C)C)/C(=C(/C)c3cc(C)oc3C)C2=O)cc1
Second: C=CCn1c(C)nc2c3c(c(C(=O)OC)cc21)C(=O)CC1(Cc2ccccc2C1)N3
The melting point of the first is lower: 157 to 158 °C for the first, 216 to 217 °C for the second.

First: O=C(O)c1cc(C(=O)O)cc(P(=O)(O)O)c1
Second: COC(=O)NC(=O)c1ccc(C=NO)cc1C
The melting point of the first is higher: 360 °C for the first, 141 to 143 °C for the second.

Compared with `O=c1c(Cl)c(Cl)cnn1CC=Cc1ccccc1`, `C=Cn1nc(-c2c(-c3ccccc3)nn3ccccc23)ccc1=O` is higher in melting point: 98 to 99 °C for the first, 188 °C for the second.

First: CC1(C)SC(c2ccccc2C(=O)O)NC1C(=O)O (stereo not drawn)
Second: CN(C)S(=O)(=O)c1ccc2c(c1)C(O)c1ccccc1C=C2 (stereo not drawn)
The melting point of the first is higher: 185 to 186 °C for the first, 150 to 152 °C for the second.

First: O=c1c2ccccc2oc2cc(OCC3CO3)ccc12 (stereo not drawn)
Second: COc1ccc(C=C2C(=O)N(C3=NCCS3)c3ccccc32)cc1
The melting point of the first is lower: 157 to 158 °C for the first, 164 to 167 °C for the second.

Compared with `CC(C)C(=O)ON(C(=O)NN(C)C)C1c2ccccc2Oc2ccccc21`, `CN(C=O)C1c2ccccc2CCc2cc(Cl)ccc21` (stereo not drawn) is lower in melting point: 131 to 132 °C for the first, 122 to 124 °C for the second.

First: CS(=O)C1C(=O)Nc2ccc(C(F)(F)F)cc21 (stereo not drawn)
Second: COCc1cc(Cl)cc2c1OC(C(F)(F)F)C(C(=O)O)=C2 (stereo not drawn)
The melting point of the first is lower: 141 to 142 °C for the first, 167 to 168 °C for the second.

Compared with `CCCc1c(OCCCOc2ccc(C(=O)C(=O)O)cc2)ccc(C(=O)OC)c1O`, `COCCCn1nnnc1-c1cc(-c2cccc(C(=O)O)c2)c(OCc2ccccc2)cc1OCc1ccccc1` is lower in melting point: 86 to 87 °C for the first, 59 to 63 °C for the second.

First: C#CC1(O)CCC2C3CCC4=CC(=O)CCC4C3C(=CF)CC21C (stereo not drawn)
Second: CC1(C2CCCC2)Cc2cc(OCCBr)c(Cl)c(Cl)c2C1=O (stereo not drawn)
The melting point of the first is higher: 188 to 190 °C for the first, 124 to 125 °C for the second.

Compared with `COc1ccc(N2CCOCC2)c2sc(NC(=O)N3CCCOCC3)nc12`, `NC(=O)c1ncn2c1nc(N1CCOCC1)c1ccccc12` is higher in melting point: 171 to 172 °C for the first, > 300 °C for the second.

Compared with `CCNC(=O)c1ccc2oc(C(=O)C(Cc3ccccc3)NC(=O)Cn3c(-c4ccc(F)cc4)ncc(NC(=O)OCc4ccccc4)c3=O)nc2c1` (stereo not drawn), `CC(=O)CCC(=O)Nc1cc(CO)cc(Nc2c3ccccc3nc3ccccc23)c1` is lower in melting point: 256 to 261 °C for the first, 197 to 199 °C for the second.

`CNC(=NC#N)NCCSCc1ccc(CN)o1` and `COc1ccccc1SCCCCCC(=O)O` cannot be ordered by melting point: 80 to 82 °C for the first, 81 to 82 °C for the second.

First: Cc1c(C(=O)Nc2cccc(C#N)c2N2CCC(CN3CCOCC3)CC2)cnn1-c1ccc(Cl)cc1
Second: Cc1ccc(CNc2ncnc3c(N4CCOCC4)nc(N4CCC(N(C)C)CC4)nc23)cc1
The melting point of the first is higher: 235 °C for the first, 142 to 144 °C for the second.

First: CC(C)OC(=O)CCC(=O)c1ccc(Cl)c(S(N)(=O)=O)c1
Second: CC(CS)C(=O)Nc1cccc(C(=O)O)n1 (stereo not drawn)
The melting point of the first is lower: 128 to 130 °C for the first, 178 to 179 °C for the second.

First: O[C@H]1c2ccccc2C=C[C@@H]1OC(C(F)(F)F)C(F)(F)F
Second: COc1ccccc1CNc1ccc2c(C(=N)NO)cccc2n1
The melting point of the first is lower: 88.5 to 90 °C for the first, 161 °C for the second.

First: OCC1OC(n2c(C(F)(F)F)nc3c(Cl)cc(Cl)cc32)C(O)C1O (stereo not drawn)
Second: Nc1nc(N)c(-c2cc(Cl)cc(Cl)c2Cl)nc1CO
The melting point of the first is lower: 162 °C for the first, 185 to 186 °C for the second.

Compared with `O=C(Cn1cncn1)c1ccc(Cl)cc1`, `Cc1ccc2c(=O)c(C(=O)O)cn(N)c2n1` is higher in melting point: 151 to 153 °C for the first, 239 to 240 °C for the second.

First: O=[N+]([O-])c1ccc(S(=O)(=O)NCc2ccccc2)c([N+](=O)[O-])c1
Second: O=S(=O)(Nc1cccc(F)c1)c1cc(S(=O)(=O)Nc2cccc(F)c2)c2cc(O)ccc2c1
The melting point of the first is higher: 150 to 151 °C for the first, 110 to 112 °C for the second.

Compared with `CC(C)(C)c1cc(Br)c(O)c(C=O)c1Cl`, `CCOc1ccc(CN2C(=O)SC(CCCC#Cc3ccc(Cl)cc3)(S(=O)(=O)c3ccc(C)cc3)C2=O)c(OCC)c1` (stereo not drawn) is higher in melting point: 103 to 105 °C for the first, 151 to 153 °C for the second.

First: CC1(C)CC(CCCCNc2nc(Cl)nc(NCCCCC3CC(C)(C)NC(C)(C)C3)n2)CC(C)(C)N1
Second: CCC1CCN(C(=O)C(N)CCSCc2cn(C(c3ccccc3)(c3ccccc3)c3ccccc3)cn2)CC1 (stereo not drawn)
The melting point of the first is lower: 40 to 42 °C for the first, 115 to 120 °C for the second.

Molecule `O=C(Cl)CCS(=O)(=O)CCCl` has a melting point of 73 to 75 °C.
